Values after ≈ are worked out from the molar mass of the structure shown.
Experiments:
MCF7 [1] = assay: Cytotoxicity against human MCF7 cells assessed as cell growth inhibition incubated for 48 hrs by SRB assay; type: functional, cell-based; settings: MCF7, 48 h
HT-29 = assay: Cytotoxicity against human HT-29 cells assessed as reduction in cell viability incubated for 48 hrs by SRB assay; type: functional, cell-based; settings: HT-29, 48 h
HCT-116 = assay: Cytotoxicity against human HCT-116 cells assessed as reduction in cell viability incubated for 48 hrs by SRB assay; type: functional, cell-based; settings: HCT-116, 48 h
[2] = Cytotoxicity against green monkey COS-7 cells; type: toxicity, cell-based; settings: green monkey (Chlorocebus aethiops)
HepG2 [3] = assay: Cytotoxicity against human HepG2 cells assessed as cell growth inhibition measured after 48 hrs by MTT assay; type: functional, cell-based; settings: HepG2, 48 h
MCF7 [4] = assay: Cytotoxicity against human MCF7 cells assessed as cell growth inhibition measured after 48 hrs by MTT assay; type: functional, cell-based; settings: MCF7, 48 h
MCF7 [5] = assay: Antiproliferative activity against human MCF7 cells assessed as reduction in cell proliferation by CCK-8 assay; type: functional, cell-based
MCF7 [6] = assay: cells; settings: Homo sapiens, MCF7, 48 h
Description: Anticancer activity against human MCF7 cells assessed as inhibition of cell growth incubated for 48 hrs by SRB assay

MCF7 [7] = assay: Antiproliferative activity against human MCF7 cells assessed as reduction in cell viability incubated for 72 hrs by MTT assay; type: functional, cell-based; settings: MCF7, 72 h
SW480 = assay: Cytotoxicity against human SW480 cells assessed as reduction in cell viability incubated for 48 hrs by MTT; type: functional, cell-based; settings: SW480, 48 h
HOS = assay: Cytotoxicity against human HOS cells assessed as reduction in cell growth incubated for 5 days by MTT assay; type: functional, cell-based; settings: 120 h
MCF7 [8] = assay: Cytotoxicity against human MCF7 cells assessed as reduction in cell growth incubated for 5 days by MTT assay; type: functional, cell-based; settings: MCF7, 120 h
MCF7 [9] = assay: Antiproliferative activity against human MCF7 cells assessed as reduction in cell viability measured after 24 hrs by MTT assay; type: functional, cell-based; settings: MCF7, 24 h
HepG2 [10] = assay: Antiproliferative activity against human HepG2 cells assessed as reduction in cell viability incubated for 48 hrs by MTT assay; type: functional, cell-based; settings: HepG2, 48 h
MCF7 [11] = assay: Cytotoxicity against human MCF7 cells assessed as inhibition of cell growth measured after 24 hrs by MTT assay; type: functional, cell-based; settings: MCF7, 24 h
MCF7 [12] = assay: Growth inhibition of human MCF7 cells incubated for 48 hrs by SRB assay; type: functional
T47D = assay: Anticancer activity against human T47D cells assessed as cell growth inhibition; type: functional, cell-based
A549 [13] = assay: Cytotoxicity against human A549 cells assessed as reduction in cell growth incubated for 48 hrs by MTT assay; type: functional, cell-based; settings: A549, 48 h
MCF7 [14] = assay: Cytotoxicity against human MCF7 cells assessed as reduction in cell growth incubated for 48 hrs by MTT assay; type: functional, cell-based; settings: MCF7, 48 h
HeLa [15] = assay: Antiproliferative activity against human HeLa cells assessed as reduction in cell viability by MTT assay; type: functional, cell-based
SK-OV-3 = assay: Antiproliferative activity against human SK-OV-3 cells assessed as reduction in cell viability by MTT assay; type: functional, cell-based
DU-145 = assay: Antiproliferative activity against human DU-145 cells assessed as reduction in cell viability by MTT assay; type: functional, cell-based
A549 [16] = assay: Antiproliferative activity against human A549 cells assessed as reduction in cell viability by MTT assay; type: functional, cell-based
HepG2 [17] = assay: Antiproliferative activity against human HepG2 cells assessed as reduction in cell viability by MTT assay; type: functional, cell-based
MCF7-DOX = assay: Antiproliferative activity against human MCF7-DOX cells assessed as reduction in cell viability by MTT assay; type: functional, cell-based
[18] = target: ALK tyrosine kinase receptor (Homo sapiens, UniProt Q9UM73, L1196M); assay: Inhibition of ALK L1196M mutant (unknown origin)
MDA-MB-231 [19] = assay: Antiproliferative activity against human MDA-MB-231 cells assessed as reduction in cell viability measured after 72 hrs under hypoxia condition by MTT assay; type: functional, cell-based; settings: MDA-MB-231, 72 h
MDA-MB-231 [20] = assay: Antiproliferative activity against human MDA-MB-231 cells assessed as reduction in cell viability measured after 72 hrs under normoxia condition by MTT assay; settings: MDA-MB-231, 72 h
HeLa [21] = assay: Anticancer activity against human HeLa cells assessed as cell growth inhibition; type: functional

Chain of ALK tyrosine kinase receptor (Q9UM73 19-1620 L1196M limits assumed): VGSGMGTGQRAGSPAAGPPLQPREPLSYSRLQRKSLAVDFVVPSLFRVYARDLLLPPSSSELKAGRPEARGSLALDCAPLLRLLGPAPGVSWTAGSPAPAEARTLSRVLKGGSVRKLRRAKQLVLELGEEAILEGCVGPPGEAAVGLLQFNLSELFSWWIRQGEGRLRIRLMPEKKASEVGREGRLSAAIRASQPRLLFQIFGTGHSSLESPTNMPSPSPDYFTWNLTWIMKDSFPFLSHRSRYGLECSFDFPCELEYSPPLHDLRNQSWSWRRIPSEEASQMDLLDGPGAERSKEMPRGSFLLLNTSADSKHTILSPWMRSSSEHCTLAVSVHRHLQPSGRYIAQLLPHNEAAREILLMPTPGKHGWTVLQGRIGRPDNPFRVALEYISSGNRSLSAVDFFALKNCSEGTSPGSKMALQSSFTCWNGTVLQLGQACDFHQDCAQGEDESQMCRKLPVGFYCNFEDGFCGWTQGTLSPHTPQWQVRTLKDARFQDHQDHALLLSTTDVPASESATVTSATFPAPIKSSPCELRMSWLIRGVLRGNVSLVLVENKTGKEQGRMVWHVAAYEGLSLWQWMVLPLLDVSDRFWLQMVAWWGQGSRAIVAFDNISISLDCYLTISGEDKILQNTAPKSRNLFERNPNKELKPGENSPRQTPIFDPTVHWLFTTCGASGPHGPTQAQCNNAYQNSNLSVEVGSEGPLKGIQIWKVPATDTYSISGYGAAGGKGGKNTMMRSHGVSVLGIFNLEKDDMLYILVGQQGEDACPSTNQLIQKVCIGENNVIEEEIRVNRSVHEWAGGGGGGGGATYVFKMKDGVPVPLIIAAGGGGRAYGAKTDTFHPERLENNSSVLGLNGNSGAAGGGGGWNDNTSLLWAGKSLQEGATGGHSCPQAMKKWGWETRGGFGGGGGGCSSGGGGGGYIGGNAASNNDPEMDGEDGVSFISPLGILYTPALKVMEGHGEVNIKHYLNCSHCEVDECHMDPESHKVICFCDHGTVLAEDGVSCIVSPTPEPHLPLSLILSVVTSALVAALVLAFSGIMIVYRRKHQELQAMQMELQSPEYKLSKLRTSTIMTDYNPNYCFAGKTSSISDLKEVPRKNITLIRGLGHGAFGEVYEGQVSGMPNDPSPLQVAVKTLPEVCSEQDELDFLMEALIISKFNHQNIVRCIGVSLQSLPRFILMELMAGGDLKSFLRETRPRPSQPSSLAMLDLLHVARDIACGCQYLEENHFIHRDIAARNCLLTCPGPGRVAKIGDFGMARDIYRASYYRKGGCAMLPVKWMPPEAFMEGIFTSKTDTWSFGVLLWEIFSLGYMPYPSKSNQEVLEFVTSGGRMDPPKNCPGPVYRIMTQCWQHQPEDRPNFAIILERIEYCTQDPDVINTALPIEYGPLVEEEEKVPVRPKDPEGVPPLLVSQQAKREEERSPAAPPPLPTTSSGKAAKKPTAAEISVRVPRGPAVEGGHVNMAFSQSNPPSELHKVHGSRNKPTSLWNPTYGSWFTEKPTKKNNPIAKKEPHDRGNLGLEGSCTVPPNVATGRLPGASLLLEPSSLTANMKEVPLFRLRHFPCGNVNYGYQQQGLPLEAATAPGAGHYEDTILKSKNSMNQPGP

Question: With `COc1ccc(/C=C2/SC(=O)N(CCCOc3ccc4c(C)cc(=O)oc4c3)C2=O)cc1` as the molecule, how does the IC50 (MCF7 [1]) read?
Answer: Its IC50 is 15.6 µg/mL (≈ 34.7 µM).

Question: For `CCCc1cc(=O)oc2cc(Nc3nc(-c4ccc(Br)cc4)cs3)ccc12`, which IC50 (HT-29) is on record?
Answer: The IC50 was 0.25 µM.

Question: What about the IC50 (HCT-116) of the same molecule?
Answer: Its IC50 is 0.26 µM.

Question: For `O=c1oc2ccccc2cc1-c1csc(N/N=C/c2cc([N+](=O)[O-])ccc2Cl)n1`, which IC50 [2] is on record?
Answer: Its IC50 is 1.96 µM.

Question: With `Cc1cc(-c2cc3cc(Cl)ccc3oc2=O)n(-c2nc(-c3ccc(Cl)cc3)cs2)n1` as the molecule, how does the IC50 (HepG2 [3]) read?
Answer: The IC50 was 3.06 µM.

Question: What about the IC50 (MCF7 [4]) of the same molecule?
Answer: Its IC50 is 4.42 µM.

Question: Which IC50 (MCF7 [5]) does the source give for `Cc1c(Cc2ccccc2)c(=O)oc2cc(OS(N)(=O)=O)ccc12` here?
Answer: Its IC50 is 0.032 µM.

Question: Which IC50 (MCF7 [4]) does the source give for `COc1ccc(-c2csc(-n3nc(C)cc3-c3cc4cc(Cl)ccc4oc3=O)n2)cc1` here?
Answer: Its IC50 is 4.03 µM.

Question: Which IC50 (MCF7 [6]) does the source give for `CN(C)c1ccc(C2CC(c3cc4ccccc4oc3=O)=NN2c2nc(-c3ccccc3)c(/N=N/c3ccc(Cl)cc3)s2)cc1` (stereo not drawn) here?
Answer: The IC50 was 5.41 µM.

Question: For `COc1ccc(/C=C/C(=N/O)c2ccc(NC(=O)COc3ccc4c(C)cc(=O)oc4c3)cc2)cc1`, which IC50 (MCF7 [7]) is on record?
Answer: The IC50 was 20.9 µg/mL (≈ 43.1 µM).

Question: For `CCCCCCCCOc1ccc2c(C)c(/C=C/c3cc(OC)ccc3OC)c(=O)oc2c1`, which IC50 (SW480) is on record?
Answer: The IC50 was 6.92 µM.

Question: Which IC50 (HOS) does the source give for `CC(c1cc2ccccc2oc1=O)(c1c[nH]c2ccc(I)cc12)c1c[nH]c2ccc(I)cc12` here?
Answer: Its IC50 is 8.75 µM.

Question: And the IC50 (MCF7 [8])?
Answer: Its IC50 is 28 µM.

Question: For `Cc1cc(=O)oc2cc(Nc3nc(-c4ccc(Cl)cc4)cs3)ccc12`, which IC50 (HT-29) is on record?
Answer: Its IC50 is 0.25 µM.

Question: What about the IC50 (HCT-116) of the same molecule?
Answer: Its IC50 is 0.25 µM.

Question: Which IC50 (HepG2 [3]) does the source give for `Cc1cc(-c2cc3ccccc3oc2=O)n(-c2nc(-c3ccc(Cl)cc3)cs2)n1` here?
Answer: The IC50 was 3.74 µM.

Question: Which IC50 (MCF7 [9]) does the source give for `Cc1cc(OCc2cn(C3C(=O)N(c4cccc([N+](=O)[O-])c4)C3/C=C\c3ccccc3)nn2)cc2oc(=O)cc(C)c12` (stereo not drawn) here?
Answer: The IC50 was 53.6 µM.

Question: With `C/C(=N\NC1=NCC(=O)S1)c1ccc(NS(=O)(=O)c2ccc3oc(=O)ccc3c2)cc1` as the molecule, how does the IC50 (HepG2 [10]) read?
Answer: Its IC50 is 5.03 µM.

Question: For `COc1cc(/C=C/c2ccc3ccc(=O)oc3c2)ccc1O`, which IC50 (SW480) is on record?
Answer: The IC50 was 5.33 µM.

Question: With `COc1ccc(-c2cc(-c3cc4ccccc4oc3=O)nc3nc(C)[nH]c(=O)c23)cc1` as the molecule, how does the IC50 (MCF7 [11]) read?
Answer: The IC50 was 1.1 µM.

Question: For `O=C(/C=C/c1ccccc1OCCN1CCCCC1)c1cc2ccccc2oc1=O`, which GI50 (MCF7 [12]) is on record?
Answer: The GI50 was 18.9 µg/mL (≈ 46.8 µM).

Question: What about the IC50 (T47D) of the same molecule?
Answer: Its IC50 is 2.32 µM.

Question: For `O=C(CNCc1cccnc1)Nc1cc2ccccc2oc1=O`, which IC50 (A549 [13]) is on record?
Answer: The IC50 was 69.1 µM.

Question: What about the IC50 (MCF7 [14]) of the same molecule?
Answer: Its IC50 is 69.1 µM.

Question: Which results are given for `Cc1cc(=O)oc2cc(Nc3nc(-c4ccc(Br)cc4)cs3)ccc12`?
Answer: IC50 (HT-29): 0.25 µM; IC50 (HCT-116): 0.25 µM

Question: With `CC(c1cc2ccccc2oc1=O)(c1c[nH]c2ccccc12)c1c[nH]c2ccccc12` as the molecule, how does the IC50 (HOS) read?
Answer: The IC50 was 20.8 µM.

Question: What about the IC50 (MCF7 [8]) of the same molecule?
Answer: The IC50 was 19.8 µM.

Question: Which results are given for `Cc1c(NC(=O)CNCc2cccnc2)c(=O)oc2ccccc12`?
Answer: IC50 (A549 [13]): 69.1 µM; IC50 (MCF7 [14]): 69.1 µM

Question: Which IC50 (HeLa [15]) does the source give for `Cc1ccc2c(c1)/C(=N\O)C(=O)N2CCOCCn1cc(COc2ccc3c(C)cc(=O)oc3c2)nn1` here?
Answer: The IC50 was 21.3 µM.

Question: And the IC50 (SK-OV-3)?
Answer: Its IC50 is 18 µM.

Question: What about the IC50 (DU-145) of the same molecule?
Answer: Its IC50 is 31.5 µM.

Question: And the IC50 (A549 [16])?
Answer: The IC50 was 18.7 µM.

Question: What about the IC50 (HepG2 [17]) of the same molecule?
Answer: Its IC50 is 19.9 µM.

Question: And the IC50 (MCF7-DOX)?
Answer: Its IC50 is 15.5 µM.

Question: Which IC50 (MCF7 [6]) does the source give for `CN(C)c1ccc(C2CC(c3c(O)c4ccccc4oc3=O)=NN2c2nc(-c3ccccc3)c(/N=N/c3ccc(Cl)cc3)s2)cc1` (stereo not drawn) here?
Answer: Its IC50 is 5.41 µM.

Question: With `Cc1cc(=O)oc2cc(OCC(=O)Nc3ccc(C(=O)/C=C/c4ccco4)cc3)ccc12` as the molecule, how does the IC50 (MCF7 [7]) read?
Answer: Its IC50 is 9.62 µg/mL (≈ 22.4 µM).

Question: Which IC50 [18] does the source give for `COc1ccc2cc(-c3nc4ccc(OC)cc4s3)c(=O)oc2c1` here?
Answer: Its IC50 is 0.45 µM.

Question: What does the source list for `COc1cccc2c1C(=O)c1c(O)c3c(c(O)c1C2=O)C[C@@](O)(C(=O)CO)C[C@@H]3O[C@H]1C[C@H](N)[C@H](O)[C@H](C)O1` [DOXORUBICIN]?
Answer: IC50 (MDA-MB-231 [19]): 0.6 µM; IC50 (MDA-MB-231 [20]): 1.07 µM

Question: With `Cc1ccc(S(=O)(=O)n2c(-c3cc(=O)oc4ccc(C)cc34)nc3ccccc32)cc1` as the molecule, how does the GI50 (HeLa [21]) read?
Answer: The GI50 was 36.2 µg/mL (≈ 84.1 µM).

Question: Which IC50 (HOS) does the source give for `Cn1cc(C(C)(c2cc3ccccc3oc2=O)c2cn(C)c3ccccc23)c2ccccc21` here?
Answer: Its IC50 is 12.2 µM.

Reference: ChEMBL document CHEMBL5357036, “Latest developments in coumarin-based anticancer agents: mechanism of action and structure-activity relationship studies” (RSC Med Chem, 2024)
